Source: ChEMBL document CHEMBL1201862, “PubChem BioAssay data set” (2004)
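The compound was tested at five concentrations on cells cultured in 96-well plates, with a 48-hour exposure period. Here, GI50 denotes the concentration required for 50% inhibition of growth.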 Calls of active or inactive are those of the source. No stated cut-off is given here; in the data, active = GI50 up to about 1.1 µM and inactive = higher.

Columns and labels:
Test in all cases: NCI-60 cell line screen, 48 h
SN12C = tested on: SN12C
EKVX = tested on: EKVX
ACHN = tested on: ACHN
OVCAR-5 = tested on: OVCAR-5
HCT-116 = tested on: HCT-116
A498 = tested on: A498
Malme-3M = tested on: Malme-3M
PC-3 = tested on: PC-3
T47D = tested on: T47D
OVCAR-3 = tested on: OVCAR-3
MDA-N = tested on: MDA-N
DU-145 = tested on: DU-145
SF-295 = tested on: SF-295
CCRF-CEM = tested on: CCRF-CEM
HCC 2998 = tested on: HCC 2998
SR = tested on: SR
OVCAR-4 = tested on: OVCAR-4
UACC-62 = tested on: UACC-62
SNB-75 = tested on: SNB-75

Measured: GI50

COc1cccc(/C=C2\S/C(=N/Nc3nc(-c4ccc([N+](=O)[O-])cc4)cs3)NC2=O)c1O
inactive: SN12C 22.1 µM | EKVX 17.4 µM | ACHN 17.3 µM | OVCAR-5 25.3 µM | HCT-116 13.1 µM | A498 23.4 µM | Malme-3M 20.5 µM | PC-3 16.1 µM | T47D 4.66 µM | OVCAR-3 15 µM | MDA-N 22.2 µM | DU-145 21.9 µM | SF-295 16.9 µM | CCRF-CEM 9.89 µM | HCC 2998 17.5 µM | SR 12 µM

N#Cc1c(C#N)c(SSc2c(C#N)c(C#N)c(N)n2-c2cccc3ccccc23)n(-c2cccc3ccccc23)c1N
inactive: SN12C 12 µM | EKVX 5.51 µM | ACHN 5.15 µM | OVCAR-5 24.2 µM | HCT-116 2.37 µM | A498 30.2 µM | Malme-3M 1.85 µM | OVCAR-4 6.01 µM | PC-3 17.4 µM | T47D 1.92 µM | UACC-62 18 µM | OVCAR-3 1.84 µM | MDA-N 6.11 µM | DU-145 21.9 µM | SF-295 19.9 µM | CCRF-CEM 1.97 µM | HCC 2998 20.1 µM | SR 2.34 µM | SNB-75 5.62 µM

Cc1cc(C)c2c(=O)n(CN3CCC(O)(c4ccccc4)CC3)sc2n1
inactive: SN12C 25.7 µM | EKVX 25 µM | ACHN 19.4 µM | OVCAR-5 23 µM | HCT-116 39.9 µM | A498 78.3 µM | Malme-3M 17.6 µM | OVCAR-4 29.4 µM | PC-3 60.1 µM | T47D 80.9 µM | UACC-62 50.9 µM | OVCAR-3 38.4 µM | MDA-N 19.6 µM | DU-145 38.3 µM | SF-295 > 100 µM | CCRF-CEM 19.4 µM | HCC 2998 27.4 µM | SR 29.9 µM | SNB-75 19.2 µM

COC(=O)c1ccc(NC(=O)c2cc3c(cc2Br)OCO3)o1
inactive: SN12C > 100 µM | EKVX > 100 µM | ACHN > 100 µM | OVCAR-5 > 100 µM | HCT-116 > 100 µM | A498 > 100 µM | OVCAR-4 > 100 µM | PC-3 > 100 µM | T47D 90.6 µM | UACC-62 > 100 µM | OVCAR-3 > 100 µM | MDA-N 42.5 µM | DU-145 > 100 µM | SF-295 > 100 µM | CCRF-CEM > 100 µM | HCC 2998 > 100 µM | SR 41.4 µM

COc1cc2cccc(N)c2cc1OC
inactive: SN12C > 100 µM | EKVX > 100 µM | ACHN > 100 µM | OVCAR-5 > 100 µM | HCT-116 > 100 µM | A498 > 100 µM | Malme-3M > 100 µM | OVCAR-4 > 100 µM | PC-3 > 100 µM | T47D > 100 µM | UACC-62 > 100 µM | OVCAR-3 > 100 µM | MDA-N > 100 µM | DU-145 > 100 µM | SF-295 > 100 µM | CCRF-CEM > 80.5 µM | HCC 2998 > 100 µM | SR > 45.3 µM | SNB-75 > 100 µM

N#CCN1CCN(CC#N)CCN(CC#N)CCN(CC#N)CC1
inactive: SN12C > 100 µM | ACHN > 100 µM | OVCAR-5 > 100 µM | HCT-116 > 100 µM | A498 > 100 µM | Malme-3M > 100 µM | OVCAR-4 > 100 µM | PC-3 96.4 µM | T47D > 100 µM | UACC-62 80.2 µM | OVCAR-3 > 100 µM | MDA-N > 100 µM | DU-145 > 100 µM | SF-295 > 100 µM | CCRF-CEM 67 µM | HCC 2998 43.5 µM | SR > 100 µM | SNB-75 > 100 µM

CSc1ccc(-c2cc(-c3nc4ccccc4[nH]3)nc(N)c2C#N)cc1
inactive: SN12C 25.8 µM | EKVX 20.1 µM | ACHN 19.9 µM | OVCAR-5 26.6 µM | HCT-116 17.9 µM | A498 15 µM | Malme-3M 19.4 µM | PC-3 20.7 µM | T47D 13.5 µM | UACC-62 12.3 µM | OVCAR-3 16.5 µM | MDA-N 20.7 µM | DU-145 17.4 µM | SF-295 21.9 µM | CCRF-CEM 13.3 µM | HCC 2998 17.1 µM | SR 13.1 µM | SNB-75 23.1 µM
